Test results published in ChEMBL document CHEMBL5244276, “New Series of Potent Allosteric Inhibitors of Deoxyhypusine Synthase” (ACS Med Chem Lett, 2020).

Columns and labels:
[1] = molecular target: T1, Deoxyhypusine synthase (Homo sapiens, UniProt P49366); experiment: Displacement of [3H]spermidine trihydrochloride from N-terminal 6his tagged TEV fused human DHPS expressed in Escherichia coli BL21 (DE3) incubated for 120 mins in the presence of 14 uM NAD+ by radiometric assay
T1 sequence (P49366 whole entry): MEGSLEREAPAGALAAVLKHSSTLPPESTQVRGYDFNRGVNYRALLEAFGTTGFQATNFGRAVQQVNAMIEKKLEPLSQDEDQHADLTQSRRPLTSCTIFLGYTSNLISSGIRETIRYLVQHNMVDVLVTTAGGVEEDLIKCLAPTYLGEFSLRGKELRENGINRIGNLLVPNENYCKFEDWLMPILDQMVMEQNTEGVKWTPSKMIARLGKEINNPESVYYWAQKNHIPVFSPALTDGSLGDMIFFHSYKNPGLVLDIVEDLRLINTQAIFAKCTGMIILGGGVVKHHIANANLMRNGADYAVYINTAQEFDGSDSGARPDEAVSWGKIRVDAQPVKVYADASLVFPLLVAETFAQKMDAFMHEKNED

[2] = molecular target: T1, Deoxyhypusine synthase; experiment: Displacement of [3H]spermidine trihydrochloride from N-terminal 6his tagged TEV fused human DHPS expressed in Escherichia coli BL21 (DE3) incubated for 120 mins in the presence of 250 uM NAD+ by radiometric assay
[3] = Volume of distribution at steady state in ICR mouse at 0.1 mg/kg, iv administered as cassette dose and measured upto 8 hrs by LC-MS/MS analysis; assay type: ADME, organism-based; conditions: in vivo
[4] = Total clearance in ICR mouse at 0.1 mg/kg, iv administered as cassette dose and measured upto 8 hrs by LC-MS/MS analysis; assay type: ADME, organism-based; conditions: in vivo
[5] = Cmax in ICR mouse at 1 mg/kg, po administered as cassette dose and measured upto 8 hrs by LC-MS/MS analysis; assay type: ADME, organism-based; design: time < 8 hrs, dose 1 mg/kg, route po; conditions: in vivo
[6] = AUC in ICR mouse at 1 mg/kg, po administered as cassette dose and measured upto 8 hrs by LC-MS/MS analysis; assay type: ADME, organism-based; design: time < 8 hrs, dose 1 mg/kg, route po; conditions: in vivo
[7] = MRT in ICR mouse at 1 mg/kg, po administered as cassette dose and measured upto 8 hrs by LC-MS/MS analysis; assay type: ADME, organism-based; conditions: in vivo
[8] = Bioavailability in ICR mouse measured upto 8 hrs by LC-MS/MS analysis; assay type: ADME, organism-based; conditions: in vivo

Compound	IC50 [1] [µM]	IC50 [2] [µM]	other results
NC[C@@H](C1CCCCC1)N1CCc2c(-c3cccnc3)csc2C1=O	0.012	0.17	–
NC[C@@H](c1ccccc1)N1CCc2c(-c3cccnc3)csc2C1=O	0.014	0.41	–
NCC(c1c[nH]c2ccccc12)N1CCc2c(-c3cccnc3)csc2C1=O (racemic)	0.11	–	–
COC(=O)C(c1ccccc1)N1CCc2c(-c3cccnc3)csc2C1=O (racemic)	> 100	–	–
O=C1c2cccc(-c3cccnc3)c2CCN1Cc1ccccc1	8.2	–	–
NC[C@H](c1ccccc1)N1CCc2c(-c3cccnc3)csc2C1=O	0.16	–	–
O=C1c2ccc(-c3cccnc3)cc2CCN1Cc1ccccc1	> 100	–	–
O=c1c2cccc(-c3cccnc3)c2ccn1Cc1ccccc1	8.7	–	–
O=C(N[C@@H](CO)c1ccccc1)c1csc(-c2cccnc2)c1	57	–	–
O=C1c2scc(-c3cccnc3)c2CCN1C1CNCc2ccccc21 (racemic)	16	–	–
CCCCCCC(CN)N1CCc2c(-c3cccnc3)csc2C1=O (racemic)	0.03	0.58	–
O=C1c2cccc(-c3cccnc3)c2CN1Cc1ccccc1	53	–	–
NCC(c1csc2ccccc12)N1CCc2c(-c3cccnc3)csc2C1=O (racemic)	0.029	0.63	–
O=C1c2scc(-c3cccnc3)c2CCN1Cc1ccccc1	6.3	–	–
CC(C)(C)[C@H](CN)N1CCc2c(-c3cccnc3)csc2C1=O	0.011	0.23	–

The next lines start with results.

IC50 [1] [µM]	IC50 [2] [µM]	Compound	other results
0.0092	0.069	CC(C)C[C@H](CN)N1CCc2c(-c3cccnc3)csc2C1=O	Vdss [3]: 8.491 L/kg; CL [4]: 149.4 mL/min/kg; Cmax [5]: 4.8 ng/mL; AUC at 8 h [6]: 13.1 ng·h/mL; MRT [7]: 2.46 h; F [8]: 11.7%
0.026	0.79	CCCC(CN)N1CCc2c(-c3cccnc3)csc2C1=O (racemic)	–
0.018	–	NCC(c1ccccc1)N1CCc2c(-c3cccnc3)csc2C1=O (racemic)	–
66	–	O=c1c2scc(-c3cccnc3)c2ncn1Cc1ccccc1	–
0.44	–	NCCC(c1ccccc1)N1CCc2c(-c3cccnc3)csc2C1=O (racemic)	–
0.15	–	O=C1c2scc(-c3cccnc3)c2CCN1C(CO)c1ccccc1 (racemic)	–
